Source: patent publication US20140045809A1, “CORROLES FOR NEUROPROTECTION AND NEURORESCUE” (priority 2008, published 2014)
“Also recorded” adds a separate entry of the source. Like-named read-outs stand apart in the source and are kept apart here.

Tests used:
[1] = tested on: clonal beta cell lines; test: Toxicity of corrole alone (without H2O2) on clonal beta cell lines; assay type: cell-based; conditions: without H2O2, concentrations up to 50 μM
[2] = tested on: INS-1E cells; test: Protection of INS-1E cells against SIN-1 toxicity (MTT); assay type: cell-based, rat; conditions: 10 μM, 30 min before SIN-1 (500 or 600 μM), 24 h
Experimental: INS-1E cells or RIN-m cells were cultured in RPMI with low serum content (2% FCS), placed in microtiter plates (96 wells) at a density of 2.5×10^4 cells/well and allowed to attach for 24 h before treatment. Corroles 1C-Fe and 5C-Fe (10 μM) were added 30 min prior to insult with the nitric oxide donor SIN-1 (500 or 600 μM) for a subsequent 24 h period. Cell viability was evaluated by a colorimetric assay for mitochondrial function using 3-(4,5-dimethylthiazol-2-yl)-2,5-diphenyltetrazolium bromide (MTT test), and expressed as percentage of untreated control. Values higher than 100% reflect increased mitochondrial activity induced by the drug. The results represent the mean±SEM of three independent experiments performed under the same conditions.

[3] = tested on: cleaved caspase-3; test: Cleaved caspase-3 level in 6-OHDA-treated SH-SY5Y cells, immunofluorescence; assay type: cell-based, human; conditions: 20 μM, 30 min before 6-OHDA (40 μM), 24 h
Experimental: SH-SY5Y cells were pretreated with or without corroles 1C-Fe, 2C-Mn and 3C-Mn and porphyrins 1P-Fe and 2P-Mn (20 μM), 30 min before exposure to 6-OHDA (40 μM) for a subsequent 24 h period. Cell viability was evaluated by MTT test and cell death was assessed using the apoptotic cell death detection ELISA kit. For neurorescue, SH-SY5Y cells were first exposed to 40 μM 6-OHDA for 0.5. 1, 1.5 and 3 h, followed by the addition of the compounds 1C-Fe, 2C-Mn and 3C-Mn (20 μM) and incubated for further 24 h. Growth-associated protein (GAP-43) was detected by fluorescence microscopy using a specific primary antibody. Apoptotic nuclei were determined by terminal deoxynucleotidyl transferase-mediated UTP-digoxigenin nick end labeling analysis. 4′,6-Diamidino-2-phenylnidole (DAPI) staining was applied for nuclear labeling. […]
Since 6-OHDA is also known to induce apoptosis in various cell types, including SH-SY5Y (von Coelln et al. 2001; Nie et al. 2002; Shimizu et al. 2002; Jordan et al. 2004), we further tested effect of corroles on the levels of the apoptotic marker, cleaved caspase-3, a major executer of the mitochondrial intrinsic pathway of apoptosis.

[4] = tested on: SH-SY5Y cells; assay type: cell-based
Experimental: Human neuroblastoma cell line was also examined under conditions similar to RIN-m cells to reveal the corrole's ability to prevent neuronal death caused by oxidative stress. SH-SY5Y cells were plated in microtiter plates (96 wells) in DMEM-Eagle/F-12(HAM) (1:1), containing 10% FCS. To examine neuroprotective effect, SH-SY5Y cells were treated for 30 min with corroles 1C-Fe and 5C-Fe (20 and 50 μM) before addition of 20 μM H2O2 for 24 h. To examine neurorescue, SH-SY5Y cells were first exposed to 20 μM H2O2 for 0.5 h, 1.5 h or 3 h, followed by the addition of corroles 1C-Fe and 5C-Fe (20 μM) and incubation for 24 h.
Compounds 1C-Fe and 1P-Fe (1-50 μM) were added 30 min before insult with H2O2 (200 μM), followed by a subsequent 24 h period. The neuroprotective effects of the iron corrole 1C-Fe and its structurally analogous iron porphyrin 1P-Fe, against H2O2-induced neurotoxicity were investigated using MTT reduction assay and cell death ELISA, based on the use of mouse monoclonal antibodies to detect free histones and fragmented DNA (F. Hollderieder et al, Biochemica 2002, 1, 25). […] In light of the observed neuroprotective effect of corrole 1C-Fe, we attempted to determine the length of the delay between H2O2 exposure and corrole 1C-Fe treatment that would still afford neuroprotection. H2O2 was administered to SH-SY5Y cells and corrole 1C-Fe was then added for 0.5-1.5 h thereafter. […]

[5] = tested on: RIN-m cells; test: Protection of RIN-m beta cells against H2O2 toxicity (MTT); assay type: cell-based, rat; conditions: for cytoprotective effect against H2O2-induced toxicity: H2O2 150 μM
[6] = molecular target: transferrin (Homo sapiens, UniProt P02787); test: Binding of corrole complexes to transferrin; conditions: preliminary experiments
Sequence of transferrin (P02787 20-698, species assumed): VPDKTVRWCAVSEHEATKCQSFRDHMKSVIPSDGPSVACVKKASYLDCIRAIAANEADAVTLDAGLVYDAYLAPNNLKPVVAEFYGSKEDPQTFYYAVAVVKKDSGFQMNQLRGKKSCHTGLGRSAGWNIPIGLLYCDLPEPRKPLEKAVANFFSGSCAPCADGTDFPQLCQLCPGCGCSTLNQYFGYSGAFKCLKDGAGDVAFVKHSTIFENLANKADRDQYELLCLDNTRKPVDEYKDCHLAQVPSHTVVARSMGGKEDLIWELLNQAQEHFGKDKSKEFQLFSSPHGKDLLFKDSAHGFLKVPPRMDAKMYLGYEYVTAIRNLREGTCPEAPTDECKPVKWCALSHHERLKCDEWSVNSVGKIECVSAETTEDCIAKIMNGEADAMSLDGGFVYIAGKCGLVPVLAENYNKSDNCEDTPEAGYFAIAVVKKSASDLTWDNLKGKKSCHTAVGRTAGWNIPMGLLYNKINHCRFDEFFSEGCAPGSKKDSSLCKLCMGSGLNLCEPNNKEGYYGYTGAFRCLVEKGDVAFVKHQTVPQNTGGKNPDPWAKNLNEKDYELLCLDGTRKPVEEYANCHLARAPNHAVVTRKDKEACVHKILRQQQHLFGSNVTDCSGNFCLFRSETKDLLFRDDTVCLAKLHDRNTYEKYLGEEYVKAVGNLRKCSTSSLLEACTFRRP
Text: Issues regarding biodistribution, transport mechanisms, accumulation in specific organs, and the eventual elimination of administered compounds are among the prime concerns when it comes to real life utilization of potential drugs. This can be addressed by several and quite different means, including in vitro, in vivo and ex-vivo examinations. One way to predict distribution is via examination of the binding of the corroles to circulating proteins that might act as transporters, similar to experiment performed previously by the inventors with metal complexes of corrole 1C (Scheme 1), which spontaneously form tightly bound non-covalent bioconjugates with HDL (Haber et al., 2007), albumin (Mahammed et al., 2004), and transferrin (Haber and Gross. 2007) (listed in increasing order of affinity), as well as with semi-synthetic proteins (Agadjanian et al., 2006). […] A more direct approach relies on the strong fluorescence of corroles that are not chelated by transition metals (no metal such as in corroles 1C and 2C, or using corrole Ga/Al complexes such as 1C-Ga). This feature is used for testing cell entry via confocal microscopy (Agadjanian et al., 2006), without the need of attaching a fluorescent tag. Furthermore, it may even be used for whole animal imaging purposes, as shown in Example 4 hereinabove. […]

SMILES | toxicity when given alone [1] | protective effect against SIN-1 induced toxicity (MTT) [2] | 6-OHDA-induced increase of cleaved caspase-3 [3] | neurorescue after H2O2 insult ([4]; 20 μM H2O2 for 0.5, 1.5 or 3 h, then 20 μM corrole, 24 h) | cell viability (MTT reduction) ([4]; 1-20 μM, 30 min before 200 μM H2O2, 24 h) | neuroprotective effect, corrole added after H2O2 ([4]; 1 and 1.5 h post-H2O2 insult, extent of protection gradually decreased) | neuroprotective effect against H2O2-induced toxicity ([4]; 20 and 50 μM, 30 min before 20 μM H2O2, 24 h) | cell death (ELISA detection assay) ([4]; 30 min before 200 μM H2O2, 24 h) | neuroprotective effect, corrole added after H2O2 ([4]; 0.5 h post-H2O2 insult) | protection from H2O2-induced neurotoxicity compared with porphyrin ([4]; all concentrations studied (1-50 μM), 200 μM H2O2) | protective effect against H2O2 toxicity relative to porphyrin 1P-Fe (MTT) ([5]; 20 μM, 30 min before 35 μM H2O2, 24 h) | protective effect against H2O2 toxicity (MTT) ([5]; 1-50 μM before 35 μM H2O2) | cytoprotective effect against H2O2-induced toxicity [5] | binding to transferrin [6]
O=S(=O)(O)c1cc2[n]3c1C(c1c(F)c(F)c(F)c(F)c1F)=C1C=CC4=[N+]1[Fe-]31[n]3c(cc(S(=O)(=O)O)c3-2)C(c2c(F)c(F)c(F)c(F)c2F)=c2ccc([n]21)=C4c1c(F)c(F)c(F)c(F)c1F (stereo not shown) [1C-Fe, 2,17-bis(sulfonato)-5,10,15-tris(pentafluorophenyl)-corrolato iron(III)] | shows no toxicity | marked protective effect | abolished partially | instigated neurorescue | dose-dependently increased cell viability | significantly protected | dose-dependent neuroprotective effect | significantly and dose-dependently protected | remained unaltered | displayed superiority over porphyrin 1P-Fe | exhibit a greater protective effect | significant protective effect | showed cytoprotective effects | 
C[n+]1ccc(C2=C3C=CC4=[N+]3[Mn-]35[n]6c2ccc6-c2ccc([n]23)C(c2cc[n+](C)cc2)=c2ccc([n]25)=C4c2c(F)c(F)c(F)c(F)c2F)cc1.[I-].[I-] (stereo not shown) [2C-Mn, 5,15-bis(4-N-methyl-pyridilium)-10-pentafluorophenyl-corrolato manganese(III) diiodide salt] |  |  | totally |  |  |  |  |  |  |  |  |  | totally inefficient; also recorded: inefficiency | still do so for transferrin
